Our source for the relative viability values is the supplement of paper PMC10307832.

Holding throughout (test): relative viability (nuclei count vs DMSO), 5 days (fraction); higher = more cells survive
Compound in the assay “RU-SKI 43 + Pemetrexed”: CC[C@@H](C)CNCC(=O)N1CCC2=C([C@@H]1COC3=CC=CC(=C3)C)C=CS2 [RU-SKI 43] + Nc1nc2[nH]cc(CCc3ccc(C(=O)N[C@@H](CCC(=O)O)C(=O)O)cc3)c2c(=O)[nH]1 [Pemetrexed] (partner 0.2 µM)
The method, boiled down:
(§1)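 Lung cancer cell lines in 1536-well plates got either a single drug or a fixed anchor-drug dose together with five library-drug doses (not always all listed) in √10 steps, by pin tool, on the day after seeding. Nuclei were counted after 5 days, and relative viability is the treated-to-vehicle ratio of nuclei counts. Values are medians of duplicate plates.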

Compound in the assay “MK-8033 + Palbociclib”: Cn1cc(-c2cnc3ccc4ccc(CS(=O)(=O)NCc5ccccn5)cc4c(=O)c3c2)cn1 [MK-8033] + CC(=O)c1c(C)c2cnc(Nc3ccc(N4CCNCC4)cn3)nc2n(C2CCCC2)c1=O [Palbociclib] (partner 0.5 µM)
The method, boiled down: as §1

Compound in the assay “MK-8033 + Dasatinib”: Cn1cc(-c2cnc3ccc4ccc(CS(=O)(=O)NCc5ccccn5)cc4c(=O)c3c2)cn1 [MK-8033] + Cc1nc(Nc2ncc(C(=O)Nc3c(C)cccc3Cl)s2)cc(N2CCN(CCO)CC2)n1 [Dasatinib] (partner 0.075 µM)
The method, boiled down:
as §1

Compound in the assay “MK-8033 + Pemetrexed”: Cn1cc(-c2cnc3ccc4ccc(CS(=O)(=O)NCc5ccccn5)cc4c(=O)c3c2)cn1 [MK-8033] + Nc1nc2[nH]cc(CCc3ccc(C(=O)N[C@@H](CCC(=O)O)C(=O)O)cc3)c2c(=O)[nH]1 [Pemetrexed] (partner 0.2 µM)
The method, boiled down:
as §1

Turning to UMC-11, the relative viability was 0.871 with RU-SKI 43 + Pemetrexed (first compound 0.1 µM); 0.951 with RU-SKI 43 + Pemetrexed (first compound 0.3162 µM); 0.91 with RU-SKI 43 + Pemetrexed (first compound 1 µM); 0.824 with RU-SKI 43 + Pemetrexed (first compound 3.162 µM); 0.837 with RU-SKI 43 + Pemetrexed (first compound 10 µM); 0.329 with MK-8033 + Palbociclib (first compound 0.02 µM). Besides, the relative viability in the assay with MK-8033 + Palbociclib (first compound 0.06325 µM) is 0.337; with MK-8033 + Palbociclib (first compound 0.2 µM), 0.3; with MK-8033 + Palbociclib (first compound 0.6325 µM), 0.35; with MK-8033 + Palbociclib (first compound 2 µM) it was 0.343; with MK-8033 + Dasatinib (first compound 0.02 µM), 0.448; with MK-8033 + Dasatinib (first compound 0.06325 µM), 0.378. The relative viability amounted to 0.421 with MK-8033 + Dasatinib (first compound 0.2 µM); 0.413 in the assay with MK-8033 + Dasatinib (first compound 2 µM); 0.801 with MK-8033 + Pemetrexed (first compound 0.02 µM); 0.75 with MK-8033 + Pemetrexed (first compound 0.06325 µM); 0.66 in the assay with MK-8033 + Pemetrexed (first compound 0.2 µM); 0.815 with MK-8033 + Pemetrexed (first compound 0.6325 µM). In the assay with MK-8033 + Pemetrexed (first compound 2 µM), the relative viability stood at 0.683.
